The values that follow come from patent US4018754A, “Novel polypeptides having ACTH-like action” (Shionogi & Co., Ltd., priority 1974, dated 1977).

Experiment [1] concerns rats. Nature of the experiment: Protracted action: time course of plasma 11-OHCS level after i.m. or i.v. injection. Format: in vivo. The note with it: rats 100-120 g, 5 μg/rat intramuscularly or intravenously. As to the method: The protracted action of the present polypeptides, e.g., [Aib^1,Lys^17,18,19 ]--ACTH(1-19)--NH2, was studied using rats weighing 100-120 g. Synthetic human ACTH, Cortrosyn--Z^R (zinc complex suspension of ACTH(1-24)--OH)and [Gly^1 ]--ACTH(1-18)--NH2 were used for comparison. The petides were intramuscularly or intravenously injected into rats at a dose of 5 μg/rat, and then the production of 11-hydroxycorticosteroids (11-OHCS) was determined. Time course of 11-OHCS level in the plasma when the peptides were administered intramuscularly and intravenously is shown in FIG. 2, respectively. […] Cortrosyn-Z is the only ACTH preparation which has been used for therapeutical purpose, though it has rather strong melanocyte stimulating activity (c.f. Table 1). […] In FIG. 2, Cortrosyn-Z (suspension of a zinc complex of ACTH(1-24)--OH) is not shown, because the suspension cannot be used through intravenous route.

For experiment [2], the system named is hypophysectomized rat.
The test system of experiment [3] is hypophysectomized rat. The source holds these as a separate data set.
Protocol: The adrenal-stimulating activity by the intramuscular administration to hypophysectomized rat was also determined, where a peptide preparation was injected into the thigh muscle and a blood sample was collected from the abdominal aorta 30 minutes after the injection. Throughout the experiment, the USP Corticotropin Reference Standard was used as a standard and the production of 11-hydroxycorticosteroids was determined by the fluorophotometric method of Peterson [J. Biol. Chem. 225 25 (1975)].
The subject of experiment [4] is rats. The note with it: i.m. for 2 days.
Protocol: The effect on adrenal growth and thymus involution was determined in the following manner: peptides were intramuscularly injected into rats weighing 100-150 g at a dose of 20μg and 100 μg/rat/day for 2 days, respectively. The rats were then submitted to autopsy 24 hours after the last injection, and then the adrenal and thymus were weighed respectively.

Read-outs that look alike come from different tables or passages of the source. Where a SMILES comes first, the peptide text is derived from it. Where no end group is shown, it is not given here. [ ]: non-standard residue; d: D form. Aib = CC(C)(N)C(=O)O

Protocol for melanocyte: The in vivo melanocyte-stimulating activity was determined according to the method of A. Tanaka described in Endocrinol.

With `CSCC[C@H](NC(=O)[C@H](CO)NC(=O)[C@H](Cc1ccc(O)cc1)NC(=O)C(C)(C)N)C(=O)N[C@@H](CCC(=O)O)C(=O)N[C@@H](Cc1c[nH]cn1)C(=O)N[C@@H](Cc1ccccc1)C(=O)N[C@@H](CCCNC(=N)N)C(=O)N[C@@H](Cc1c[nH]c2ccccc12)C(=O)NCC(=O)N[C@@H](CCCCN)C(=O)N1CCC[C@H]1C(=O)N[C@H](C(=O)NCC(=O)N[C@@H](CCCCN)C(=O)N[C@@H](CCCCN)C(=O)N[C@@H](CCCCN)C(=O)N[C@@H](CCCCN)C(=O)N[C@@H](CCCCN)C(N)=O)C(C)C` [[Aib^1, Lys^17,18,19]--ACTH(1-19)-- NH2] (H-[Aib]YSMEHFRWGKPVGKKKKK-NH2), the “Protracted adrenal-stimulating action (time course of plasma 11-OHCS level)” value in the experiment on rats [1] is “protracted to almost the same extent as that produced by Cortrosyn-Z”.

For `CSCC[C@H](NC(=O)[C@H](CO)NC(=O)[C@H](Cc1ccc(O)cc1)NC(=O)C(C)(C)N)C(=O)N[C@@H](CCC(=O)O)C(=O)N[C@@H](Cc1c[nH]cn1)C(=O)N[C@@H](Cc1ccccc1)C(=O)N[C@@H](CCCNC(=N)N)C(=O)N[C@@H](Cc1c[nH]c2ccccc12)C(=O)NCC(=O)N[C@@H](CCCCN)C(=O)N1CCC[C@H]1C(=O)N[C@H](C(=O)NCC(=O)N[C@@H](CCCCN)C(=O)N[C@@H](CCCCN)C(=O)N[C@@H](CCCCN)C(=O)N[C@@H](CCCCN)C(=O)N[C@@H](CCCCN)C(=O)N[C@@H](CCCCN)C(N)=O)C(C)C` [[Aib^1,Lys^17,18,19,20]-ACTH(1-20)-NH2, Aib--Tyr--Ser--Met--Glu--His--Phe--Arg--Trp--Gly--Lys--Pro--Val--Gly--Lys- -Lys--Lys--Lys--Lys--Lys--NH2] (H-[Aib]YSMEHFRWGKPVGKKKKKK-NH2), the “Adrenal-stimulating activity i.v. (relative potency)” value in the experiment with hypophysectomized rat [2] (rat, in vivo, iv) is reported as 6.3. Further, the “Melanocyte-stimulating activity in vivo (b), relative potency” value in the experiment with melanocyte was 0.15. Moreover, in the experiment on hypophysectomized rat [3] (rat, in vivo), the “Adrenal-stimulating activity i.m. (relative potency)” value worked out at 10.7.

Consider `CSCC[C@H](NC(=O)[C@H](CO)NC(=O)[C@H](Cc1ccc(O)cc1)NC(=O)C(C)(C)N)C(=O)N[C@@H](CCC(=O)O)C(=O)N[C@@H](Cc1c[nH]cn1)C(=O)N[C@@H](Cc1ccccc1)C(=O)N[C@@H](CCCNC(=N)N)C(=O)N[C@@H](Cc1c[nH]c2ccccc12)C(=O)NCC(=O)N[C@@H](CCCCN)C(=O)N1CCC[C@H]1C(=O)N[C@H](C(=O)NCC(=O)N[C@@H](CCCCN)C(=O)N[C@@H](CCCCN)C(=O)N[C@@H](CCCCN)C(=O)N[C@@H](CCCCN)C(=O)N[C@@H](CCCCN)C(N)=O)C(C)C` [[Aib^1,Lys^17,18,19]-ACTH(1-19)-NH2, Aib--Tyr--Ser--Met--Glu--His--Phe--Arg--Trp--Gly--Lys--Pro--Val--Gly--Lys- -Lys--Lys--Lys--Lys--NH2] (H-[Aib]YSMEHFRWGKPVGKKKKK-NH2), for which, in the experiment with hypophysectomized rat [2] (rat, in vivo, iv), the “Adrenal-stimulating activity i.v. (relative potency)” value was 5.7. For the same molecule, the “Melanocyte-stimulating activity in vivo (b), relative potency” value in the experiment on melanocyte is reported as 0.11. Besides, the “Protracted adrenal-stimulating action (time course of plasma 11-OHCS level)” value in the experiment on rats [1] (Lys^17,18,19 ]--ACTH(1-19)--NH2) was “very protracted action”. In the experiment with hypophysectomized rat [3] (rat, in vivo), the “Adrenal-stimulating activity i.m. (relative potency)” value is on record as 7.8.

As to `CSCC[C@H](NC(=O)[C@H](CO)NC(=O)[C@H](Cc1ccc(O)cc1)NC(=O)C(C)(C)N)C(=O)N[C@@H](CCC(=O)O)C(=O)N[C@@H](Cc1c[nH]cn1)C(=O)N[C@@H](Cc1ccccc1)C(=O)N[C@@H](CCCNC(=N)N)C(=O)N[C@@H](Cc1c[nH]c2ccccc12)C(=O)NCC(=O)N[C@@H](CCCCN)C(=O)N1CCC[C@H]1C(=O)N[C@H](C(=O)NCC(=O)N[C@@H](CCCCN)C(=O)N[C@@H](CCCCN)C(=O)N[C@@H](CCCCN)C(=O)N[C@@H](CCCCN)C(N)=O)C(C)C` [[Aib^1,Lys^17,18]-ACTH(1-18)-NH2, [Aib^1,Lys^17,18]--ACTH(1-18)--NH2, reference compound] (H-[Aib]YSMEHFRWGKPVGKKKK-NH2), in the experiment on hypophysectomized rat [2] (rat, in vivo, iv), the “Adrenal-stimulating activity i.v. (relative potency)” value was determined as 9.3. Further, in the experiment on melanocyte, the “Melanocyte-stimulating activity in vivo (b), relative potency” value is 0.82. Also, the “Adrenal-stimulating activity i.m. (relative potency)” value in the experiment on hypophysectomized rat [3] (rat, in vivo) amounted to 9.4.

In the case of `CSCC[C@H](NC(=O)[C@H](CO)NC(=O)[C@H](Cc1ccc(O)cc1)NC(=O)C(C)(C)N)C(=O)N[C@@H](CCC(=O)O)C(=O)N[C@@H](Cc1c[nH]cn1)C(=O)N[C@@H](Cc1ccccc1)C(=O)N[C@@H](CCCNC(=N)N)C(=O)N[C@@H](Cc1c[nH]c2ccccc12)C(=O)NCC(=O)N[C@@H](CCCCN)C(=O)N1CCC[C@H]1C(=O)N[C@H](C(=O)NCC(=O)N[C@@H](CCCCN)C(=O)N[C@@H](CCCCN)C(=O)N[C@@H](CCCNC(=N)N)C(=O)N[C@@H](CCCNC(=N)N)C(N)=O)C(C)C` [[Aib^1]-ACTH(1-18)-NH2, [Aib^1]--ACTH(1-18)--NH2, reference compound] (H-[Aib]YSMEHFRWGKPVGKKRR-NH2), the “Adrenal-stimulating activity i.v. (relative potency)” value with hypophysectomized rat [2] (rat, in vivo, iv) is given as 4.1. Moreover, in the experiment on melanocyte, the “Melanocyte-stimulating activity in vivo (b), relative potency” value is 1.00. Besides, the “Adrenal-stimulating activity i.m. (relative potency)” value in the experiment on hypophysectomized rat [3] (rat, in vivo) was 9.9.

For “GYSMEHFRWGKPVGKKRR-NH2 [[Gly^1]-ACTH(1-18)-NH2, [Gly^1]--ACTH(1-18)--NH2, reference compound]”, the “Adrenal-stimulating activity i.v. (relative potency)” value with hypophysectomized rat [2] (rat, in vivo, iv) worked out at 1.0. Also, in the experiment with rats [4], the “effects on adrenal growth and thymus involution (in words)” value is recorded as “very weak”. The “Melanocyte-stimulating activity in vivo (b), relative potency” value in the experiment with melanocyte is on record as 0.11. For the same molecule, in the experiment on hypophysectomized rat [3] (rat, in vivo), the “Adrenal-stimulating activity i.m. (relative potency)” value came out at 1.0.

Take “Native ACTH: native corticotropin (ACTH), native hormone used for comparison (SYSMEHFRWGKPVGKKRRPVKVYPNGAEDESAEAFPLEF; Corticotropin; UniProt P01189 138-176, looked up)”: in the experiment on hypophysectomized rat [2] (hypophysectomized rat, femoral vein injection, blood sample 30 minutes after injection, USP Corticotropin Reference Standard as standard), the “Adrenal-stimulating activity i.v. (relative potency)” value is 1.0. Moreover, the “effects on adrenal growth and thymus involution (in words)” value with rats [4] is on record as “very weak”. The “Adrenal-stimulating activity i.m. (relative potency)” value with hypophysectomized rat [3] (hypophysectomized rat, thigh muscle injection, blood sample 30 minutes after injection, USP Corticotropin Reference Standard as standard) is listed as 4.0.
